Experimental data taken from patent publication US20240209011A1, “HETEROAROMATIC PHOSPHONIUM SALTS FOR TREATING CANCER” (FLORATEK PHARMA S.A., priority 2021, published 2024).

Experiments:
[1] = test system: SCLC doxorubicin resistant cell line H69AR; test: Cell viability assay (CellTiter-Blue/CellTiter-Glow); format: cell-based; conditions: Homo sapiens, absolute IC50, 72 h
How it was run: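 72 h viability assay in RPMI 1640 or DMEM plus 10% FCS; seeding density set by growth rate (4,000-20,000 cells/well). CellTiter-Blue or CellTiter-Glo endpoint, absolute IC50 at T/C=50%.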

[2] = target: T1, ABL1(E255K)-phosphorylated (Homo sapiens, UniProt P00519, E255K); test: KINOMEscan competition binding assay, Kd; conditions: 11-point 3-fold dilution series
T1 construct: purchased Eurofins (KINOMEscan); host or cells: T7 phage in BL21-derived E. coli, or HEK-293
Method: (§1) Selected compounds were screened for kinase inhibition using the KINOMEscan™ assay (Eurofins) which is based on a competition binding assay that quantitatively measures the ability of a compound to compete with an immobilized, active-site directed ligand. The assay was performed by combining three components: DNA-tagged kinase; immobilized ligand; and the test compound. The ability of the test compound to compete with the immobilized ligand was measured via quantitative PCR of the DNA tag.
(§2) Kinase-tagged T7 phage strains were prepared in an E. coli host derived from the BL21 strain. E. coli were grown to log-phase and infected with T7 phage and incubated with shaking at 32° C. until lysis. The lysates were centrifuged and filtered to remove cell debris. The remaining kinases were produced in HEK-293 cells and subsequently tagged with DNA for qPCR detection. Streptavidin-coated magnetic beads were treated with biotinylated small molecule ligands for 30 minutes at room temperature to generate affinity resins for kinase assays. The liganded beads were blocked with excess biotin and washed with blocking buffer (SeaBlock (Pierce), 1% BSA, 0.05% Tween 20, 1 mM DTT) to remove unbound ligand and to reduce non-specific binding. Binding reactions were assembled by combining kinases, liganded affinity beads, and test compounds in 1× binding buffer (20% SeaBlock, 0.17×PBS, 0.05% Tween 20, 6 mM DTT). Test compounds were prepared as 111× stocks in 100% DMSO. Kds were determined using an 11-point 3-fold compound dilution series with three DMSO control points. All compounds for Kd measurements are distributed by acoustic transfer (non-contact dispensing) in 100% DMSO. The compounds were then diluted directly into the assays such that the final concentration of DMSO was 0.9%. All reactions performed in polypropylene 384-well plate. Each was a final volume of 0.02 ml. The assay plates were incubated at room temperature with shaking for 1 hour and the affinity beads were washed with wash buffer (1×PBS, 0.05% Tween 20). The beads were then resuspended in elution buffer (1×PBS, 0.05% Tween 20, 0.5 μM nonbiotinylated affinity ligand) and incubated at room temperature with shaking for 30 minutes. The kinase concentration in the eluates was measured by qPCR.
(§3) Binding constants (Kds) were calculated with a standard dose-response curve using the Hill equation: Response=Background+[Signal−Background/i+(Kd^Hill Slope/Dose^Hill Slope)]. The Hill Slope was set to −1. Curves were fitted using a non-linear least square fit with the Levenberg-Marquardt algorithm.

[3] = target: T2, ABL1-nonphosphorylated (Homo sapiens, UniProt P00519); test: KINOMEscan competition binding assay, Kd; conditions: 11-point 3-fold dilution series
T2 construct: purchased Eurofins (KINOMEscan); host or cells: T7 phage in BL21-derived E. coli, or HEK-293
Method: as §1, §2, §3

[4] = target: T3, ABL1-phosphorylated (Homo sapiens, UniProt P00519); test: KINOMEscan competition binding assay, Kd; conditions: 11-point 3-fold dilution series
T3 construct: purchased Eurofins (KINOMEscan); host or cells: T7 phage in BL21-derived E. coli, or HEK-293
Method: as §1, §2, §3

T1 sequence (P00519 whole entry E255K): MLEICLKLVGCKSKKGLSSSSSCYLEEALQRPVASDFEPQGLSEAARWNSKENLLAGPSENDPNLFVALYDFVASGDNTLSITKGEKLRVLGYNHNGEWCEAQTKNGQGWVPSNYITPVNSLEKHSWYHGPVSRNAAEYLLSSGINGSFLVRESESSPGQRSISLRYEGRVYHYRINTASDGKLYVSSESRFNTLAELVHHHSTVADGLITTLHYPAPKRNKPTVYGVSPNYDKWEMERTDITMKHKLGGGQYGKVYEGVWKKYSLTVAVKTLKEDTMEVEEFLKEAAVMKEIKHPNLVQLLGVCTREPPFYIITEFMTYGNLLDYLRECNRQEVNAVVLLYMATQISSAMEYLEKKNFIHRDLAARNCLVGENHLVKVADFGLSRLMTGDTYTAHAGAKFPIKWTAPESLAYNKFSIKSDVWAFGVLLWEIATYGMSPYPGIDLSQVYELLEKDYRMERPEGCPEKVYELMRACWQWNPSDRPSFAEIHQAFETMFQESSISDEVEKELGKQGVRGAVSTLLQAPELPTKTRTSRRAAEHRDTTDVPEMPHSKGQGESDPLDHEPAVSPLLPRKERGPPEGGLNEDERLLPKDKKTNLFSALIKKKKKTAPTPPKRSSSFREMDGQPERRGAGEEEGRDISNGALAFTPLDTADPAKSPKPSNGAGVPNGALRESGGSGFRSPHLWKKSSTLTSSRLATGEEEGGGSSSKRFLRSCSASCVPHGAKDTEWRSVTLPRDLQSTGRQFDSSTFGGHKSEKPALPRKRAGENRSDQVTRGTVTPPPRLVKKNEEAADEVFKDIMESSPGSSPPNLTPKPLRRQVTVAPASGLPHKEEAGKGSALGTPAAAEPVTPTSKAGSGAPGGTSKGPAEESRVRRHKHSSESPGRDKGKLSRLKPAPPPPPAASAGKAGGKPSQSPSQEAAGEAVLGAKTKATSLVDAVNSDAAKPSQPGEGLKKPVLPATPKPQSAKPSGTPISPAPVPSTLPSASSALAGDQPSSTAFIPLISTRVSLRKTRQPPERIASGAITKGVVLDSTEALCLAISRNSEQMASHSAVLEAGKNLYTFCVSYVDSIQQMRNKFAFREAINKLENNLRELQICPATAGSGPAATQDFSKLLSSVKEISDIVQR
T3 sequence (P00519 whole entry): as the sequence (P00519 whole entry E255K) above, with K255E counted along it
T2 sequence (P00519 whole entry): as the sequence (P00519 whole entry E255K) above, with K255E counted along it

Structure (SMILES) | IC50 [1] [nM] | Kd [2] [nM] | Kd [3] [nM] | Kd [4] [nM]
O=c1cc(-c2ccc(CCCC[P+](c3ccccc3)(c3ccccc3)c3ccccc3)cc2)oc2c3c(ccc12)OCO3.[Br-] [SND123, 4-[4-(6-oxo-[1,3]dioxolo[4,5-h]chromen-8-yl)phenyl]butyl-triphenylphosphonium bromide] | 11800 | 970 | 1300 | 860
COc1c(O)ccc2c(=O)cc(-c3ccc(CCCC[P+](c4ccccc4)(c4ccccc4)c4ccccc4)cc3)oc12.[Br-] [SND140, (4-(4-(7-hydroxy-8-methoxy-4-oxo-4H-chromen-2-yl)phenyl)butyl)triphenylphosphonium bromide] | 14600 | 660 | 1500 | 700
